Consider 1 compound from US6046192A, “Phenylethanolaminotetralincarboxamide derivatives” (Kissei Pharmaceutical Co., Ltd., priority 1996, dated 2000).

For one data set, the target named is T1, β2 -adrenergic receptor (Rattus norvegicus, UniProt P10608).
T1 construct: longitudinal uterine muscle strips (about 15 mm in length and about 5 mm in width) free from the basal plate were prepared; from tissue; host or cells: longitudinal uterine muscle strips of pregnant SD rats (pregnancy day 21)
Kind of data set: Spontaneous contractions of isolated pregnant rat myometrium (β2-adrenergic receptor stimulating activity). As to conditions: isolated pregnant rat uterus (SD, pregnancy day 21), Magnus method; read-out: EC50 value (activity to relax 50% of the spontaneous contractions of rat myometrium). Here is the method:
Thus, the compounds of the present invention have a markedly potent β2 -adrenergic receptor stimulating effect and therefore are remarkably useful as β2 -adrenergic receptor stimulating agents.
Action of Drugs on the Spontaneous Contractions of Isolated Pregnant Rat Myometrium
The uteri of pregnant SD rats (pregnancy day 21) were isolated and longitudinal uterine muscle strips (about 15 mm in length and about 5 mm in width) free from the basal plate were prepared. The experiment was conducted according to the Magnus method. The preparations with a tension of 1 g were exposed to Locke-Ringer solution maintained at 37° C. and gassed with a mixture of 95% of oxygen and 5% of carbon dioxide. Spontaneous contractions of myometrium were induced isometrically via a pressure transducer and recorded on a rectigram. The drug efficacy was evaluated as 50% inhibitory drug concentration (i.e., EC50 value) by comparing the total degree of uterine contraction during 5 minutes before the addition of the drug with the total degree of uterine contraction during 5 minutes after the addition of the drug.

Another data set relates to β1 -adrenergic receptor. The data set can be described thus: Atrial contraction of isolated rat atrium (β1-adrenergic receptor stimulating activity). The following applies: isolated rat atrium (SD male), Magnus method. As to the method:
Thus, the compounds of the present invention have a markedly weaker β1 -adrenergic receptor stimulating effect in comparison with the aforementioned β2 -adrenergic receptor stimulating effect.
Action of Drugs on the Atrial Contraction of Isolated Rat Atrium
The atria of SD male rats (350 to 400 g in body weight) were isolated and the experiment was conducted according to the Magnus method. The preparations with a tension of 1 g were exposed to Krebs-Henseleit solution maintained at 37° C. and gassed with a mixture of 95% of oxygen and 5% of carbon dioxide. The atrial contraction was induced isometrically via a pressure transducer and recorded on a rectigram. After addition of the drug, its efficacy was evaluated as drug concentration which increases 20 beats per minute of heart rate (i.e., EC20 value).

Another data set relates to ICR mice. Kind of data set: Acute toxicity. As to conditions: female ICR mice, intravenous, 50 mg/kg in saline. In kind it is in vivo. Here is the method: To 4 female ICR mice of 4 weeks age was administered intravenously 2-[(2S)-2-[[(2R)-2-hydroxy-2-(4-hydroxyphenyl)-ethyl]amino]-1,2,3,4-tetrahydronaphthalen-7-yloxy]-N,N-dimethylacetamide dissolved in saline at dose of 50 mg/kg. No death of animals was observed during 24 hours after the administration.

SMILES strings stand for the structures.

T1 sequence (P10608 whole entry): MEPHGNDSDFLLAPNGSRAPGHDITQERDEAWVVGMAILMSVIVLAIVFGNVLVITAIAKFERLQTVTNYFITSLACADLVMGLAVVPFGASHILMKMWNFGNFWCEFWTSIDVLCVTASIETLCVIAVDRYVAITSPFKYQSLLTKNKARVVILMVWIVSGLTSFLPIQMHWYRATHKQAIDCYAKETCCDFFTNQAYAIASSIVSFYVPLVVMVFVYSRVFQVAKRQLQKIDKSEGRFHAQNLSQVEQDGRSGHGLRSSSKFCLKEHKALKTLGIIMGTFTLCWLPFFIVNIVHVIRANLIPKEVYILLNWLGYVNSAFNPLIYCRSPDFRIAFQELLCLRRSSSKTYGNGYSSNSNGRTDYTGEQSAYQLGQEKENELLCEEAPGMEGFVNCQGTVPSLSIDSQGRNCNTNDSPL

By EC50 is commonly meant the midpoint of the concentration-response curve. `CN(C)C(=O)COc1ccc2c(c1)C[C@@H](NC[C@H](O)c1ccc(O)cc1)CC2` [2-[(2S)-2-[[(2R)-2-Hydroxy-2-(4-hydroxyphenyl)ethyl]-amino]-1,2,3,4-tetrahydronaphthalen-7-yloxy]-N,N-dimethylacetamide]: the EC50 at β2 -adrenergic receptor is 15 nM. In the data set with β1 -adrenergic receptor, the “EC20 value (activity to increase rat heart rate 20 beats per minute)” value is on record as 1.6×10^-6 molar concentration. Besides, the “death of animals during 24 hours after the administration” value with ICR mice is recorded as “No death”.
